Source: patent US6770632B1, “Folypolyglutamyl synthetase gene transfer to enhance antifolate” (priority 1999, dated 2004)
Read-outs that look alike come from different tables or passages of the source.

Columns and labels:
[1] = system: subcutaneous 9L tumors; assay: Growth of subcutaneous 9L tumors in nude mice; format: in vivo; settings: after three weeks
Protocol: (§1) In Vivo Experiments: 10^5 9L or 9L/FPGS cells or a mixture of 8×10^5 9L+2×10^5 9L/FPGS cells in 200 μL DMEM were injected subcutaneously into the flanks of six week old female nude mice (NCr/Sed, nu/nu, 20 gm; Massachusetts General Hospital breeding colony). After 14 days, when the tumors had reached an average volume of 60 mm^3, the mice were randomly divided into experimental groups with five mice per group. Intraperitoneal injections of varying MTX or EDX doses dissolved in 200 μL 0.9% NaCl were administered either daily or every third day. Tumor size was measured weekly using calipers. Tumor volume was calculated as length×width×height, as described previously (Takamiya, Y., et al., Journal of Neuroscience Research 33:493-503 (1992)).

[2] = mouse, in vivo, 9 mg/kg; cited from earlier work
[3] = system: hepatoma cells; settings: cited from earlier work
[4] = system: subcutaneous 9L/FPGS tumors; assay: Growth of subcutaneous 9L/FPGS tumors in nude mice; format: in vivo; settings: after three weeks
Protocol: as §1

[5] = system: 9L cells; settings: rat, 24 h, 2 μM
Protocol: (§3) Thin Layer Chromatography of MTX Metabolites: 10^6 9L or 9L/FPGS cells were plated in 6-cm diameter dishes and allowed to adhere for 4 hours, after which cells were incubated overnight with 2 μM 3′, 5′, 7-[^3H] methotrexate (Moravek Biochemicals; Brea, Calif.). Cells were then trypsinized, centrifuged, resuspended in 300 μL deionized water, and sonicated for 45 seconds at half-maximal power. Sonicated cells were centrifuged briefly to remove cellular debris, after which protein concentration was calculated using the Bradford protein assay. Proteins were precipitated with 1 mL methanol at −20° C. for 2 hr. Precipitated proteins were removed by centrifugation at 20,000 g for 30 min, and the supernatant was then concentrated to 30 μL under a stream of N2 at 37° C. on a Meyer N-Evap Analytical Evaporator (Organomation Associates Inc., Northborough, Mass.). A 1 μL aliquot was scintillation counted—cpm were converted into moles of drug taken up by determining the cpm of a known quantity of [^3H] MTX. […] Plates were eluted with a chloroforrn-methanol-acetic acid mixture (2:2:1) containing 20 mg/mL cetyl trimethylammonium bromide (Sigma). Following elution, the plates were placed under ordinary fluorescent light for 2 days, after which 20 nmol unlabelled standards were visualized under long-wave ultraviolet light. Plates were run in duplicate and the average RF values of the standards were: MTX=0.66; MTX-G1=0.59; MTX-G2=0.44, MTX-G3=0.33; MTX-G4=0.27; MTX-G5=0.25. Regions corresponding to where standards migrated were marked in the sample lane, scraped individually into scintillation vials, and counted. The amount of each radioactive metabolite in a sample lane was determined as a percentage of the total radioactivity recovered from that sample lane, after subtraction of the background counts obtained from lanes lacking radioactive sample.

[6] = system: U87 cells; assay: Cell culture survival study, U87 cells; format: cell-based, human
Protocol: (§2) Cell Culture Survival Studies: Cells were plated in triplicate at 8×10^5 cells per 10-cm-diameter plate, and were allowed to adhere for 4 hours, after which the medium was replaced with medium containing MTX or EDX. After 4 hours drug exposure, the plates were washed three times with 4 mL PBS. Drug-free medium was then added, and three days later the cells were trypsinized and counted on a model ZM Coulter apparatus. Dose-response curves were generated using Sigma Plot 3.0, which employs curve-fitting parameters based on the Marquardt-Levenberg method (Marquardt, D. W., Siam, J., J. Soc. Indust. Appl. Math 11:431-441 (1963)).

[7] = in vivo; settings: nude, mouse, ip
[8] = system: 9L/FPGS cells; settings: rat, 24 h, 2 μM
Protocol: as §3

[9] = Maximum tolerated (nonlethal) dose in nude mice
[10] = in vivo, cited from earlier work
[11] = system: cocultures of 9L/FPGS and 9L cells; assay: Bystander effect study, cocultures of 9L/FPGS and 9L cells; format: cell-based, rat
Protocol: For bystander effect studies, cells were plated in triplicate with varying combinations of 9L/FPGS and 9L cells such that the total number of cells was 8×10^5 per 10-cm-diameter plate. The same protocol of 4 hour cell adherence followed by 4 hour drug exposure, washes, growth in drug free medium for 3 days, and counting on a ZM coulter apparatus was then followed. […] Four mL conditioned medium+2 mL fresh medium were added to 10-cm-diameter plates containing 9L/BAG cells plated overnight (1000 cells/dish, with a clonogenic efficiency of approximately 20%). Six days later, the cells were fixed with 4% paraformaldehyde in PBS. Fixed cells were stained for LacZ by incubating overnight in a solution containing 35 mM potassium ferricyanide, 35 mM potassium ferrocyanide, 2 mM magnesium chloride, and 0.2% 5-bromo-4-chloro-3-indolyl-β-D galactoside (Xgal; Fisher Scientific Co.;Pittsburgh, Pa.) at pH=7.3 (Price, J., et al., Proceedings of the National Academy of Sciences USA 84:156-160 (1987)). The next day, blue colonies greater than 1 mm in diameter were counted.
However, a more quantitative approach is to generate a dose-response curve for nontransfected cells, transfected cells, and a coculture and to calculate the transmission efficiency (TE) for the coculture (Friedlos, F., et al., Journal of Medicinal Chemistry 40:1270-1275 (1997)). [formula]
The superscripts 0, N, and 100 designate the ED50 values for cultures containing 0, N, and 100% transfected cells.

[12] = nude mice, five consecutive days, previous studies (Inaba 1989); cited from earlier work
[13] = system: 9L/FPGS cells; assay: Cell culture survival study, 9L/FPGS cells; format: cell-based, rat; settings: for EC50: Rattus norvegicus, 9L/FPGS, read-out: ED50 (the source's name)
Protocol: as §2, with “After 4 hours drug exposure, the plates were washed three times with 4 mL PBS.” left out

[14] = system: 9L cells; assay: Cell culture survival study, 9L cells; format: cell-based, rat; settings: for EC50: Rattus norvegicus, 9L, read-out: ED50 (the source's name)
Protocol: as §2, with “After 4 hours drug exposure, the plates were washed three times with 4 mL PBS.” left out

[15] = 4 h, 4 hrs drug exposure, curves of FIG. 1 (MTX) / FIG. 3a (EDX)

SMILES: CN(Cc1cnc2nc(N)nc(N)c2n1)c1ccc(C(=O)N[C@@H](CCC(=O)O)C(=O)O)cc1 [MTX, Amethopterin]
- fold growth of tumor volume ([1]; 9 mg/kg daily i.p.): 10 fold
- fold growth of tumor volume ([1]; 9 mg/kg every third day i.p.): 26 fold
- peak plasma level [2]: 0.03 mM
- total intracellular polyglutamate pool leaving the cell as monoglutamylated MTX [3]: 43%
- fold growth of tumor volume ([4]; 9 mg/kg daily i.p.): 4 fold
- fold growth of tumor volume ([4]; 9 mg/kg every third day i.p.): 9 fold
- TOTAL MTX ACCUMULATED [5]: 6.3 pmol/mg protein
- total radioactivity associated with the higher order polyglutamates MTX-G4 and G5 [5]: 14%
- ED50 of U87 higher than that of 9L ([6]; 4 hour pulse): over 10 fold
- EC50 ([6]; Homo sapiens, U-87 MG, U87, 4 hrs drug exposure, 3 days drug-free, read-out: ED50 (the source's name)): 30000 nM
- MTD [7]: 9 mg/kg/day
- POLYGLUTAMATE DISTRIBUTION (percentages of total sample lane radioactivity) [8]: 10%
- TOTAL MTX ACCUMULATED [8]: 12.7 pmol/mg protein
- total radioactivity associated with the higher order polyglutamates MTX-G4 and G5 [8]: 31%
- maximum nonlethal dose [9]: 9 mg/kg
- peak plasma level ([10]; 50 mg/kg): 0.1 mM
- dose at which toxic side effects are experienced [10]: 50 mg/kg
- EC50 ([11]; Rattus norvegicus, coculture 20% 9L/FPGS + 80% 9L, 4 hrs drug exposure, FIG. 4a, read-out: ED50 (the source's name)): 1400 nM
- transmission efficiency (TE) ([11]; cocultures containing 20% 9L/FPGS cells, 4 hour pulses): 49.9%
- maximum tolerated (nonlethal) dose (MTD) [12]: 15 mg/kg/day
- range of concentrations with statistically significant difference in survival between 9L and 9L/FPGS ([13]; 4 hour pulses): 100 fold
- difference in ED50 between 9L and 9L/FPGS ([13]; 4 hour pulses, FIG. 1 / FIG. 3A): 29 fold
- EC50 ([13]; 4 h, 4 hrs drug exposure, bystander experiment FIG. 4a (MTX) / 4b (EDX)): 93 nM
- EC50 [13, 15]: 101 nM
- EC50 ([13]; 72 h, 72 hrs drug exposure): 40 nM
- survival ([13]; two G418-resistant clones (one designated 9L/FPGS), 0.3 μM for 4 hours, 3 days drug-free medium): approximately 40%
- survival ([14]; 9L cells, 0.3 μM for 4 hours, 3 days drug-free medium): ~90%
- EC50 ([14]; 4 h, 4 hrs drug exposure, bystander experiment FIG. 4a): 2700 nM
- EC50 [14, 15]: 2900 nM
- EC50 ([14]; 72 h, 72 hrs drug exposure): 40 nM
